Reference: US20250042896A1, “POLYCYCLIC COMPOUND AS CBL-B INHIBITOR” (HAINAN SIMCERE ZAIMING PHARMACEUTICAL CO., LTD., priority 2021, published 2025)

Legend:
[1] = molecular target: Cbl-b protein and UbcH5B-Ub (Homo sapiens (Human), UniProt Q13191); experiment: Cbl-b activity assay (HTRF, interaction between Cbl-b protein and UbcH5B-Ub); assay type: biochemical; settings: inhibition of interaction between Biotin-Cbl-b protein and Eu-Ubquitin-UbcH5B, HTRF signal 665 nm/615 nm
Procedure: Experiment purpose: Testing of inhibitory activity of compounds on the interaction between Cbl-b protein and UbcH5B-Ub
Experimental method: Eu-Ubquitin-UbcH5B was prepared by incubating Eu-Ubquitin (Cisbio) with UbcH5B (ENZO), E1 (ENZO) at 37° C. for 4 hours. Eu-Ubquitin-UbcH5B was aliquoted and stored at −80° C. Cbl-b activity assay was performed in 384-well plates (Perkin Elmer). 100 nL of 3-fold serial dilutions of compounds (final concentration 10 μM-0.5 nM, starting concentration 10 μM, 3-fold dilution, 10 points, 10th point being 0.5 nM) and 5 μL of 50 nM Biotin-Cbl-b protein (Sigma) were incubated for 1 hour at room temperature, and the reaction buffer was 50 mM HEPES pH 7.0 (Gibco), 100 mM NaCl (Sigma), 0.01% Triton X-100 (Sigma), 0.01% BSA (Sigma) and 1 mM DTT (Invitrogen). 5 μL of Src mixed solution (40 nM Src (R&D), 2 mM ATP (Sigma), 10 mM MgCl2 (Sigma)) was added to the reaction plate and incubated at room temperature for 3 hours. 10 μL of detection solution (12.5 nM Strepdividin-XL665 (Cisbio), 500 nM Eu-Ubquitin-UbcH5B, […] (Invitrogen), 0.004% BSA (Sigma)) was added to the reaction plate, incubated overnight at room temperature, and the HTRF signal (665 nm/615 nm) was read on Envision (Perkin Elmer). IC50 was calculated using IDBS XLfit.

Jurkat T cells = experiment: Jurkat T activation assay (IL-2 release, ELISA); assay type: cell-based; settings: IL-2 release of Jurkat T cells, Anti-Human CD3/CD28 stimulation, 48 hours, IL-2 ELISA
Procedure: Experiment purpose: Testing of effect of compounds on IL-2 release and activation of Jurkat T cells
Experimental method: 96-well cell plates (Corning) were coated with 2 μg/mL Anti-Human CD3 Clone OKT3 (BD) at 37° C. for 4 hours. 3-fold serial dilutions of compounds (final concentration 10 μM-4.6 nM, starting concentration 10 μM, 3-fold dilution, 8 points, 8th point being 4.6 nM) and 220 μL of 1.11×10^6/mL Jurkat T cells (ATCC) were incubated for 1 hour, 5 μL of 45 μg/mL Anti-Human CD28 Clone CD28.2 (BD) was added, mixed evenly, 100 μL was transferred to the aforementioned CD3-coated cell plate, cultured in a cell incubator at 37° C. for 48 hours, and the supernatant was collected and the IL-2 release was detected using an IL-2 ELISA kit (BD). EC50 was analyzed using Prism.

Chain of Cbl-b protein and UbcH5B-Ub (Q13191 whole entry, species assumed): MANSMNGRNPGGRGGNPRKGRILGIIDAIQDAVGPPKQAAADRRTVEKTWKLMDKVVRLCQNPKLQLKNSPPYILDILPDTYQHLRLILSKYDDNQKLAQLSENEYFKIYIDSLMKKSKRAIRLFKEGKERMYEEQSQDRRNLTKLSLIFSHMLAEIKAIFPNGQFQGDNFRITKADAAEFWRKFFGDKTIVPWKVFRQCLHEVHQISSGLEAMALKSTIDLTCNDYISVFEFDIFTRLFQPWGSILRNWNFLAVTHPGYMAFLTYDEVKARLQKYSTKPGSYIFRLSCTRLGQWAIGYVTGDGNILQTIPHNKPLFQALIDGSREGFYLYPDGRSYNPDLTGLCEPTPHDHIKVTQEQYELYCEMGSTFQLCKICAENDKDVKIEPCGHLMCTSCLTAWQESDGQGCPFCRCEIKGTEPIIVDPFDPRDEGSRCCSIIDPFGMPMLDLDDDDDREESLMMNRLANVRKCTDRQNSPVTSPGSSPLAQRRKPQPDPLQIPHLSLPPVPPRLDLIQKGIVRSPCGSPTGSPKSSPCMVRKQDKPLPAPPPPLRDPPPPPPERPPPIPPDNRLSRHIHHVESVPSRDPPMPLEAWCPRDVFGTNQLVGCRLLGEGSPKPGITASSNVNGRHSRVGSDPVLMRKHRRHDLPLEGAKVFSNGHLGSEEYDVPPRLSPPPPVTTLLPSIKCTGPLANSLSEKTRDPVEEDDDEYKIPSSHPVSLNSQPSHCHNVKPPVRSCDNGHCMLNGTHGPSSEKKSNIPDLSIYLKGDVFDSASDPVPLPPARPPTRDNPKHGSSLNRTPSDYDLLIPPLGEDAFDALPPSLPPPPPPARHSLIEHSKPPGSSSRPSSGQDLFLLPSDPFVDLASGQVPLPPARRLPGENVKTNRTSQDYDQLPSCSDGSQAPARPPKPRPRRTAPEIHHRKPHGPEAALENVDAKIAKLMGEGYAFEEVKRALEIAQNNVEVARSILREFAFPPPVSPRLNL

Row | SMILES | IC50 [1] [nM] | EC50 (Jurkat T cells) [nM]
1 | C[C@H]1CCCN(Cc2cc(C(F)(F)F)c3ncc(-c4cccc(C5(Cc6nncn6C)COC5)c4)c(=O)n3c2)C1 [Compound 5] | 450 | –
2 | Cc1cc(CN2CCC[C@H](C)C2)cc2c(=O)c(-c3cccc(C(C)(C)c4nncn4C)c3)coc12 [Compound 67, (S)-8-methyl-3-(3-(2-(4-methyl-4H-1,2,4-triazol-3-yl)propan-2-yl)phenyl)-6-((3-methylpiperidin-1-yl)methyl)-4H-chromen-4-one] | 96.4 | –
3 | Cc1c(F)c(CN2CCC[C@H](C)C2)cc2c(=O)c(-c3cccc(C(c4nncn4C)C4CC4)c3)coc12 (stereo partly drawn) [Compound 124, 3-(3-(cyclopropyl(4-methyl-4H-1,2,4-triazol-3-yl)methyl)phenyl)-7-fluoro-8-methyl-6-(((S)-3-methylpiperidin-1-yl)methyl)-4H-chromen-4-one] | 19.7 | 383
4 | Cc1cc(CN2CCC[C@H](C)C2)cc2c(=O)c(-c3cccc(C4(c5nncn5C)CC(F)(F)C4)c3)coc12 [Compound 73, (S)-3-(3-(3,3-difluoro-1-(4-methyl-4H-1,2,4-triazol-3-yl)cyclobutyl)phenyl)-8-methyl-6-((3-methylpiperidin-1-yl)methyl)-4H-chromen-4-one] | 64.9 | –
5 | Cc1cc(CN2CCC[C@H](C)C2)cc2c(=O)c(-c3cccc(C4(c5nncn5C)CC(C)C4)c3)coc12 (stereo partly drawn) [Compound 58, (S)-8-methyl-3-(3-(3-methyl-1-(4-methyl-4H-1,2,4-triazol-3-yl)cyclobutyl)phenyl)-6-((3-methylpiperidin-1-yl)methyl)-4H-chromen-4-one] | 9.7 | 112
6 | CC1CC(c2cccc(-c3cnc4c(C(F)(F)F)cc(CN5CCN(C)C[C@@H]5C(C)C)cn4c3=O)c2)(c2nncn2C)C1 (some centres unmarked) [Compound 89] | 41.6 | –
7 | CC1CC(c2cccc(-c3coc4c(C5CC5)cc(CN5CCC[C@H](C)C5)cc4c3=O)c2)(c2nncn2C)C1 (stereo partly drawn) [Compound 74, (S)-8-cyclopropyl-3-(3-(3-methyl-1-(4-methyl-4H-1,2,4-triazol-3-yl)cyclobutyl)phenyl)-6-((3-methylpiperidin-1-yl)methyl)-4H-chromen-4-one] | 19.1 | –
8 | CC1CC(c2cccc(-c3cnc4c(C(F)(F)F)cc(CN5CCC[C@H](C)C5)cn4c3=O)c2)(c2nncn2C)C1 (stereo partly drawn) [Compound 2, 3-[3-[3-methyl-1-(4-methyl-4H-1,2,4-triazol-3-yl)cyclobutyl]phenyl]-7-[[(3S)-3-methyl-1-piperidyl]methyl]-9-(trifluoromethyl)pyrido[1,2-a]pyrimidin-4-one] | 40.3 | 634
9 | CC1CC(c2cccc(-c3cnc4c(F)cc(CN5CCC[C@H](C)C5)cn4c3=O)c2)(c2nncn2C)C1 (some centres unmarked) [Compound 9] | 130 | –
10 | Cc1cc(CN2CCC[C@H](C)C2)cc2c(=O)c(-c3cccc(C4(c5nncn5C)CC(F)C4)c3)coc12 (stereo partly drawn) [Compound 69, 3-(3-((1R,3S)-3-fluoro-1-(4-methyl-4H-1,2,4-triazol-3-yl)cyclobutyl)phenyl)-8-methyl-6-(((S)-3-methylpiperidin-1-yl)methyl)-4H-chromen-4-one] | 15 | 552
11 | Cc1c(F)c(CNC2(C)CCC2)cc2c(=O)c(-c3cccc([C@]4(c5nncn5C)C[C@@H](C)C4)c3)coc12 [Compound 122, 7-fluoro-8-methyl-3-(3-(cis-3-methyl-1-(4-methyl-4H-1,2,4-triazol-3-yl)cyclobutyl)phenyl)-6-(((1-methylcyclobutyl)amino)methyl)-4H-chromen-4-one] | 12.3 | 555
12 | Cc1cc(CN2CCC[C@H](C)C2)cc2c(=O)c(-c3cc(C(F)(F)F)cc(C4(c5nncn5C)CC(C)C4)c3)coc12 (stereo partly drawn) [Compound 66, (S)-8-methyl-3-(3-(3-methyl-1-(4-methyl-4H-1,2,4-triazol-3-yl)cyclobutyl)-5-trifluoromethylphenyl)-6-((3-methylpiperidin-1-yl)methyl)-4H-chromen-4-one] | 88.9 | –
13 | CC1CC(c2cccc(-c3cnc4c(C(F)(F)F)cc(CN5CCO[C@H](C)C5)cn4c3=O)c2)(c2nncn2C)C1 (some centres unmarked) [Compound 4] | 268 | –
14 | CC1CC(c2cccc(-c3cnc4sc(CN5CCC[C@H](C)C5)cn4c3=O)c2)(c2nncn2C)C1 (stereo partly drawn) [Compound 59, (S)-6-(3-(3-methyl-1-(4-methyl-4H-1,2,4-triazol-3-yl)cyclobutyl)phenyl)-2-((3-methylpiperidin-1-yl)methyl)-5H-thiazolo[3,2-a]pyrimidin-5-one] | 43.1 | –
15 | CC1CC(c2cncc(-c3coc4c(C5CC5)cc(CN5CCC[C@H](C)C5)cc4c3=O)c2)(c2nncn2C)C1 (stereo partly drawn) [Compound 75, (S)-8-cyclopropyl-3-(5-(3-methyl-1-(4-methyl-4H-1,2,4-triazol-3-yl)cyclobutyl)pyridin-3-yl)-6-((3-methylpiperidin-1-yl)methyl)-4H-chromen-4-one] | 7.4 | –
16 | CC1CC(c2cccc(-c3cnc4c(C(F)(F)F)cc(CN5CC6CCC5C6)cn4c3=O)c2)(c2nncn2C)C1 (centres unmarked) [Compound 17] | 167 | –
17 | Cc1cc(CN2CCC[C@H](C)C2)cn2c(=O)c(-c3cccc(C4(c5nncn5C)CC(C)C4)c3)cnc12 (some centres unmarked) [Compound 11] | 31.2 | –
18 | CC1CC(c2cccc(-c3cnc4c(C5CC5)cc(CN5CCC[C@H](C)C5)cn4c3=O)c2)(c2nncn2C)C1 (some centres unmarked) [Compound 13] | 31.9 | –
19 | Cc1cc(CN2CCC[C@H](C)C2)cc2c(=O)c(-c3cccc([C@](F)(c4nncn4C)C4CC4)c3)coc12 [Compound 120-P1] | 212 | –
20 | C[C@H]1CCCN(Cc2cc(C(F)(F)F)c3ncc(-c4cccc(C(c5nncn5C)C5CC5)c4)c(=O)n3c2)C1 (stereo partly drawn) [Compound 63, 3-(3-(cyclopropyl(4-methyl-4H-1,2,4-triazol-3-yl)methyl)phenyl)-7-(((S)-3-methylpiperidin-1-yl)methyl)-9-trifluoromethyl-4H-pyrido[1,2-a]pyrimidin-4-one] | 41.6 | –
21 | CC1CC(c2cccc(-c3cnc4ccc(CN5CCC[C@H](C)C5)cn4c3=O)c2)(c2nncn2C)C1 (stereo partly drawn) [Compound 1, 3-[3-[3-methyl-1-(4-methyl-4H-1,2,4-triazol-3-yl)cyclobutyl]phenyl]-7-[[(3S)-3-methyl-1-piperidyl]methyl]pyrido[1,2-a]pyrimidin-4-one] | 76.6 | –
22 | CC1CC(c2cccc(-c3cnc4c(Br)cc(CN5CCC[C@H](C)C5)cn4c3=O)c2)(c2nncn2C)C1 (some centres unmarked) [Compound 14] | 29.3 | –
23 | Cc1cc(CN2CCC[C@H](C)C2)cc2c(=O)c(-c3cccc([C@@](F)(c4nncn4C)C4CC4)c3)coc12 [Compound 120-P2, 3-(3-((R)-cyclopropylfluoro(4-methyl-4H-1,2,4-triazol-3-yl)methyl)phenyl)-8-methyl-6-(((S)-3-methylpiperidin-1-yl)methyl)-4H-chromen-4-one] | 7.8 | –
24 | Cc1cc(CN2CCC(F)(F)[C@H](C)C2)cc2c(=O)c(-c3cccc(C(F)(c4nncn4C)C4CC4)c3)coc12 (stereo partly drawn) [Compound 129, 3-(3-(cyclopropylfluoro(4-methyl-4H-1,2,4-triazol-3-yl)methyl)phenyl)-6-(((R)-4,4-difluoro-3-methylpiperidin-1-yl)methyl)-8-methyl-4H-chromen-4-one] | 17.8 | –
25 | CCc1cc(CN2CCC[C@H](C)C2)cn2c(=O)c(-c3cccc(C4(c5nncn5C)CC(C)C4)c3)cnc12 (some centres unmarked) [Compound 12] | 63.9 | –
26 | Cc1cc(CN2CCC[C@H](C)C2)cc2c(=O)c(-c3cccc(C(c4nncn4C)C4CC4)c3)coc12 (stereo partly drawn) [Compound 64, 3-(3-(cyclopropyl(4-methyl-4H-1,2,4-triazol-3-yl)methyl)phenyl)-8-methyl-6-(((S)-3-methylpiperidin-1-yl)methyl)-4H-chromen-4-one] | 38.4 | –
27 | Cc1cc(CN2CCC[C@H](C)C2)cc2c(=O)c(-c3cccc(C4(c5nncn5C)CCO4)c3)coc12 (stereo partly drawn) [Compound 71, 8-methyl-3-(3-(2-(4-methyl-4H-1,2,4-triazol-3-yl)oxetan-2-yl)phenyl)-6-(((S)-3-methylpiperidin-1-yl)methyl)-4H-chromen-4-one] | 203 | –
28 | Cc1cc(CN2CCN(C)C[C@@H]2C(C)C)cc2c(=O)c(-c3cccc(C4(c5nncn5C)CC(C)C4)c3)coc12 (some centres unmarked) [Compound 88] | 32.7 | –
29 | CC1CC(c2cccc(-c3cnc4c(Cl)cc(CN5CCC[C@H](C)C5)cn4c3=O)c2)(c2nncn2C)C1 (some centres unmarked) [Compound 10] | 42.9 | –
30 | COc1cc(CN2CCC[C@H](C)C2)cn2c(=O)c(-c3cccc(C4(c5nncn5C)CC(C)C4)c3)cnc12 (some centres unmarked) [Compound 3] | 296 | –
